Measured values published in paper PMC7403315, “Cyclic peptide FXII inhibitor provides safe anticoagulation in a thrombosis model and in artificial lungs” (Nature Communications, 2020).
Values joined by “and” are separate entries in the source; they are usually repeats but may differ in a detail not shown here. Equal entries are not always repeated. Where two headings read alike, the source gives them in different places. Starred links: 1 amine or outer side, 2 acyl side, 3 side chain; linkers in the order of their positions; H or OH if unused. Positions of bridges follow the written chain, without caps; N, C: chain ends. Non-standard residues stand in square brackets, D forms with d. Residues, ends and D or L forms follow the SMILES beside them. TATA = O=C(CC[*:1])N1CN(C(=O)CC[*:2])CN(C(=O)CC[*:3])C1; Phe(4-F) = N[C@@H](Cc1ccc(F)cc1)C(=O)O; β3hR = N=C(N)NCCC[C@H](N)CC(=O)O

Experiments:
[1] = human; cited from earlier work
[2] = Pharmacokinetic study in mice (plasma concentration by LC-MS); format: in vivo, mouse; details: 5 mg kg^−1 subcutaneous
Experimental: Mice for all experiments were kept at ambient temperature (around 20 °C), around 60% humidity, half-day light/half-day dark cycles, and in groups of 2–5 mice per cage. C57BL/6J wild-type mice (male, 10–20 weeks old, 25–30 g, Charles River) were injected subcutaneously over the shoulders with 5 mg kg^−1 of FXII900 (0.5 mg ml^−1 in PBS, pH 7.4). The mice were anaesthetized 3 min before the scheduled blood collection time point (40 mg kg^−1 pentobarbital). […] The mice were euthanized by cervical dislocation. The blood was immediately processed to plasma by centrifugation for 10 min at 2000 × g and 4 °C, and stored at −80 °C. The concentration of FXII900 in the plasma samples was determined by LC-MS as described below. Differenct mice were used for each time point.
(§1) The concentration of FXII900 in the plasma samples was quantified based on peak intensities of total ion current (TIC) chromatograms acquired by LC-MS (LCMS-2020, Shimadzu). To 15 μl of plasma sample, 1 μM of internal standard peptide and 5 μl of 6 M guanidinium hydrochloride solution were added and mixed. Plasma proteins were precipitated by the addition of 400 µl of ice cold ethanol (99.9% [v/v] EtOH, 0.1% [v/v] TFA) and incubated on ice for one hour. Precipitate was removed by centrifugation (9000 × g, 20 min, 4 °C) and the supernatant dried by centrifugal evaporation under vacuum. Dried samples were dissolved by sequentially adding 2 μl of DMSO and 18 μl of H2O containing 0.1% (v/v) CHOOH and analyzed by LC-MS. The samples were analyzed using an analytical C18 column (Phenomenex C18 Kinetex column, 50 × 2.1 mm, 2.6 µm, 100 Å) and a linear gradient of 5–30% solvent B (MeCN, 0.05% [v/v] CHOOH) in solvent A (H2O, 0.05% [v/v] CHOOH) in 4.5 min at a flow of 1 ml per min. The mass was measured on a single quadrupole mass spectrometer in positive ion mode using electrospray ionization. Peptides were quantified based on the absolute intensities of the detected mass peaks (M^3+ and M^4+).

[3] = Pharmacokinetic study in rabbits (plasma concentration by LC-MS); format: in vivo, rabbit
Experimental: The pharmacokinetic properties of FXII900 applied intravenously were determined as follows. Female New Zealand White rabbits (10–20 weeks old) were injected with 3.7 mg kg^−1 FXII900 dissolved in 1 ml PBS, pH 7.4 via the ear vein. […] The concentration of FXII900 in the plasma samples was determined by LC-MS as described below. The pharmacokinetic properties of FXII900 applied subcutaneously were determined as follows. Female New Zealand White rabbits (2.5–2.9 kg) were injected subcutaneously over the shoulders with 3.7 mg kg^−1 of FXII900 dissolved in 1 ml PBS pH 7.4. […] The plasma was stored at −80 °C. The concentration of FXII900 in the plasma samples was determined by LC-MS as described below.
as §1

[4] = Plasma degradation assay (LC-MS); format: in vitro ADME, mouse; details: 37 °C
Experimental: Plasma stability and peptide cleavage sites were assessed by incubating the bicyclic peptides in mouse plasma and analyzing the products with an LC-MS system (LCMS-2020, Shimadzu). Peptide (2 μl of 2 mM in H2O) was added to 48 μl of citrated mouse plasma (Innovative Research) to obtain a final peptide concentration of 80 μM. The mixture was incubated in a water bath at 37 °C. At different time points (0, 15, 24, 72, 96, 120, and 144 h), samples of 5 μl were removed, mixed with 5 μl of 6 M guanidinium hydrochloride, and incubated for 30 min at RT. Plasma proteins were precipitated by incubation with 200 μl of ice cold EtOH and 0.1% (v/v) formic acid for 30 min and centrifuged at 9000 × g for 20 min at 4 °C. […] The residue was dissolved in 40 µl of deionized water containing 0.1% (v/v) CHOOH and analyzed by LC-MS. The samples were analyzed using an analytical C18 column (Phenomenex C18 Kinetex column, 50 × 2.1 mm, 2.6 μm, 100 Å) and a linear gradient of 5–35% solvent B (MeCN, 0.05% [v/v] CHOOH) in solvent A (H2O, 0.05% [v/v] CHOOH) in 5.5 min at a flow of 1 ml per min. The masses of the intact peptide and degradation products were measured on a single quadrupole mass spectrometer in positive ion mode using electrospray ionization. Peptides were quantified based on the absolute intensities of the detected mass peaks (M^3+ and M^4+).

[5] = female, New Zealand White, rabbit, plasma, intravenous, 3.7 mg kg-1

Structure (SMILES)	t1/2 of cleavage of N-terminal Arg1 by plasma proteases [1]	Plasma conc. ([2]; 15 min)	level at time molar at 0.05 h ([2]; male, C57BL/6J, mouse, plasma, sc, 5 mg/kg, 3 min, read-out: Plasma conc.)	level at time molar at […] ([2]; male, C57BL/6J, mouse, plasma, sc, 5 mg/kg, 15 min, read-out: Plasma conc.)	Vd [3, 5]	clearance [3, 5]	half-life ([3]; female, New Zealand White, rabbit, plasma, intravenous, 3.7 mg kg^−1, read-out: elimination half-life (t1/2 β))	level at time molar at 2 min ([3]; female, New Zealand White, rabbit, plasma, iv, 3.7 mg/kg, intravenous administration, 2 min, individual rabbits and analyses, read-out: Plasma conc.)	level at time molar at 5 min ([3]; female, New Zealand White, rabbit, plasma, iv, 3.7 mg/kg, intravenous administration, 5 min, individual rabbits and analyses, read-out: Plasma conc.)	level at time molar at 10 min ([3]; female, New Zealand White, rabbit, plasma, iv, 3.7 mg/kg, intravenous administration, 10 min, individual rabbits and analyses, read-out: Plasma conc.)	level at time molar at 20 min ([3]; female, New Zealand White, rabbit, plasma, iv, 3.7 mg/kg, intravenous administration, 20 min, individual rabbits and analyses, read-out: Plasma conc.)	level at time molar at 40 min ([3]; female, New Zealand White, rabbit, plasma, iv, 3.7 mg/kg, intravenous administration, 40 min, individual rabbits and analyses, read-out: Plasma conc.)	level at time molar at 40 min ([3]; female, New Zealand White, rabbit, plasma, sc, 3.7 mg/kg, subcutaneous administration, 40 min, individual rabbits and analyses, read-out: Plasma conc.)	Plasma conc. ([3]; intravenous administration, 5 min, individual rabbits and analyses)	Plasma conc. ([3]; intravenous administration, 10 min, individual rabbits and analyses)	Plasma conc. ([3]; intravenous administration, 20 min, individual rabbits and analyses)	Plasma conc. ([3]; intravenous administration, 40 min, individual rabbits and analyses)	Plasma conc. ([3]; subcutaneous administration, 10 min, individual rabbits and analyses)	Plasma conc. ([3]; subcutaneous administration, 160 min, individual rabbits and analyses)	degradation products by mass spectrometric analysis of plasma samples [4]
CC(C)C[C@@H]1NC(=O)[C@H](CCC(N)=O)NC(=O)[C@H](CCCNC(=N)N)NC(=O)[C@@H]2CSCCC(=O)N3CN(CN(C3)C(=O)CCSC[C@H](NC(=O)[C@@H](N)CCCNC(=N)N)C(=O)N[C@@H](Cc3ccccc3)C(=O)N[C@@H](CCCNC(=N)N)C(=O)N[C@@H](CC(C)C)C(=O)N3CCC[C@H]3C(=O)N2)C(=O)CCSC[C@@H](C(=O)N[C@@H](CCCNC(=N)N)C(N)=O)NC(=O)[C@H](CCCNC(=N)N)NC1=O [FXII618]	around 4 h	–	–	–	–	–	–	–	–	–	–	–	–	–	–	–	–	–	–	–
CC(C)C[C@@H]1NC(=O)[C@H](CCC(N)=O)NC(=O)[C@H](Cc2c[nH]cn2)NC(=O)[C@@H]2CSCCC(=O)N3CN(CN(C3)C(=O)CCSC[C@H](NC(=O)[C@@H](CO)NC(=O)[C@H](N)CCCNC(=N)N)C(=O)N[C@@H](Cc3ccc(F)cc3)C(=O)N[C@@H](CCCNC(=N)N)C(=O)N[C@@H](CC(C)C)C(=O)N3CCC[C@H]3C(=O)N2)C(=O)CCSC[C@@H](C(N)=O)NC(=O)C[C@H](CCCNC(=N)N)NC1=O [FXII900] (H-[dR][dS]C[Phe(4-F)]RLPCHQL[β3hR]C-NH2; linker 3-8-13 via TATA)	–	1470 nM	~1000 nM	1990 nM	0.28 ± 0.05 L/kg	16.1 ± 1 mL/min/kg	12 ± 2 min	5510 nM	2610 nM	2250 nM	1260 nM	503 nM	254 nM	2596 nM	2079 nM	1683 nM and 1119 nM	313.9 nM	237.6 nM	-5.09 nM	no degradation products
